Assay results published in publication PMC13065029 (PLOS One, 2026).
Read-outs that look alike come from different tables or passages of the source.

T1: Chikungunya virus (CHIKV) nsP2 protease (Chikungunya virus)
T1 chain: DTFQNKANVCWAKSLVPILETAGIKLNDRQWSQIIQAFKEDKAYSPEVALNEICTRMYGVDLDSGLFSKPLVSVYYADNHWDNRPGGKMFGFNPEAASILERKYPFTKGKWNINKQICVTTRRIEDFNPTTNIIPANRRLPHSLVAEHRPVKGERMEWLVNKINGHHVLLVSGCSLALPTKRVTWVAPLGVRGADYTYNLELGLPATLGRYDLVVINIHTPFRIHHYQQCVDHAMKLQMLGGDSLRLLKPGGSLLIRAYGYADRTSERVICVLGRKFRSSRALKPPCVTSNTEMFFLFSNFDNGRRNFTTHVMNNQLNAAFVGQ


Key:
Dengue virus = details: cited from earlier work
Yellow Fever virus = details: cited from earlier work
CHIKV nsP2^pro [1] = molecular target: T2, CHIKV nsP2^pro (Chikungunya virus, UniProt Q8JUX6); details: FRET; ref [18]; read-out: IC₅₀; cited from earlier work
CHIKV nsP2^pro [2] = molecular target: T2, CHIKV nsP2^pro; details: fluorometry; ref [18]; cited from earlier work
CHIKV nsP2^pro [3] = molecular target: T2, CHIKV nsP2^pro; details: ref [18]; cited from earlier work
CHIKV nsP2^pro [4] = molecular target: T2, CHIKV nsP2^pro; details: MST; ref [67]; cited from earlier work
[5] = system: Human alphaherpesvirus 1 (HSV-1); details: cited from earlier work
[6] = molecular target: T1, Chikungunya virus (CHIKV) nsP2 protease; assay: BLI; details: both partners purified

Molecule	IC50 (CHIKV nsP2^pro [1]) [µM]	Kd (CHIKV nsP2^pro [2]) [µM]	Inhibition Mode (CHIKV nsP2^pro [3])	other results
Phospholipase A2	–	–	–	antiviral activity (Dengue virus): antiviral activity; antiviral activity (Yellow Fever virus): antiviral activity
COc1ccc([C@@H]2CC(=O)c3c(O)cc(O)cc3O2)cc1O [Hesperetin (HST), Hesperetin]	2.5 ± 0.4	31.6 ± 2.5	Noncompetitive	–
CC1=C(CO)C(=O)O[C@@H]([C@@H](C)[C@H]2CC[C@H]3[C@@H]4C[C@H]5O[C@]56[C@@H](O)C=CC(=O)[C@]6(C)[C@H]4CC[C@]23C)C1 [Withaferin A (WFA), Withaferin A]	–	–	–	Kd (CHIKV nsP2^pro [4]): 64 µM
Mastoparan	–	–	–	antiviral activity [5]: antiviral activity
COc1ccc([C@@H]2CC(=O)c3c(O)cc(O[C@@H]4O[C@H](CO[C@@H]5O[C@@H](C)[C@H](O)[C@@H](O)[C@H]5O)[C@@H](O)[C@H](O)[C@H]4O)cc3O2)cc1O [Hesperidin (HSD), Hesperidin]	7.1 ± 1.1	40.7 ± 2	Noncompetitive	–
GILGKLWEGFKSIV (Stock of 10 mM in DMSO) [pantinin-1]	–	–	–	Kd [6]: 9.29 µM
